In patent US11319316B2, “Compounds that induce degradation of anti-apoptotic Bcl-2 family proteins and the uses thereof” (BioVentures, LLC, priority 2016, dated 2022):

Key:
Format in all cases: cell-based
[1] = tested on: IR-induced senescent WI38 cells (IR-SC); assay: Viability of IR-induced senescent WI38 cells (IR-SC), 72 h, PI staining and flow cytometry; conditions: for EC50: Homo sapiens, WI-38, IR-induced senescent WI38 cells, 72 hours, viable (PI-) cells as percentage of vehicle control; for Ratio NSC/SC: ratio of WI38 EC50 in NSC to EC50 in IR-SC; for Selective inhibition of IR-SC WI38 cells versus normal WI38 cells: FIG. 2A, FIG. 2B, increasing concentrations
Protocol: (§1) Normal WI38 (NSC) and IR-induced senescent WI38 cells (IR-SC) were incubated with vehicle or increasing concentrations of compounds of Formula (I) or Formula (II) for 72 hours. The cells were digested with 0.25% trypsin and 1 mM EDTA, and harvested in PBS containing 2% FBS. After incubation with propidium iodide (PI, 100 ng/ml) in PBS at room temperature for 1 minute, cells were centrifuged at 1,200 rpm for 6 minutes to remove PI and then resuspended in PBS containing 2% FBS for analysis using a flow cytometer. Viable cells (PI-cells) were analyzed by flow cytometry at a constant flow rate to count the number of cells and calculated as a percentage of control cells treated with vehicle. Table 1 depicts the EC50 values of the compounds of Formula (I) and compounds of Formula (II) against normal WI38 and IR-induced senescent WI38.

Normal WI38 (NSC) = assay: Viability of normal WI38 cells (NSC), 72 h, PI staining and flow cytometry; conditions: Homo sapiens, WI-38, viable (PI-) cells as percentage of vehicle control
Protocol: as §1

NCI-H146 cancer cells = assay: Cancer cell viability by MTS, 72 h, NCI-H146; conditions: Homo sapiens
Protocol: (§2) RS4; 11 and NCI-H146 cancer cells were incubated with vehicle or increasing concentrations of compounds of Formula (I) and Formula (II). At 72 hours post-treatment cell viability was measured by MTS and EC50 was calculated as a percentage of control cells treated with vehicle. Table 1 depicts the EC50 values of compounds of Formula (I) and Formula (II) against RS4; 11 and NCI-H146.

RS4; 11 cancer cells = assay: Cancer cell viability by MTS, 72 h, RS4;11; conditions: Homo sapiens, RS4;11 cells
Protocol: as §2

| Structure (SMILES) | EC50 (NCI-H146 cancer cells) | EC50 (RS4; 11 cancer cells) | EC50 [1] | EC50 (Normal WI38 (NSC)) | Ratio NSC/SC [1] | Selective inhibition of IR-SC WI38 cells versus normal WI38 cells [1] |
| --- | --- | --- | --- | --- | --- | --- |
| CC1(C)CCC(CN2CCN(c3ccc(C(=O)NS(=O)(=O)c4ccc(NCC5CCOCC5)c([N+](=O)[O-])c4)c(Oc4cnc5[nH]ccc5c4)c3)CC2)=C(c2ccc(Cl)cc2)C1 [ABT-199, venetoclax, reference compound] | – | – | > 10000 nM | > 10000 nM | – | – |
| O=C1CCC(N2C(=O)c3cccc(NCCOCCOCCOCc4cn(CCCC(=O)N5CCN(CC#Cc6ccc(OCCCc7sc(N8CCc9cccc(C(=O)Nc%10nc%11ccccc%11s%10)c9C8)nc7C(=O)O)c(F)c6)CC5)nn4)c3C2=O)C(=O)N1 (stereo not shown) [XZ-12906, 2-(8-(benzo[d]thiazol-2-ylcarbamoyl)-3,4-dihydroisoquinolin-2(1H)-yl)-5-(3-(4-(3-(4-(4-(4-((2-(2-(2-(2-(2,6-dioxopiperidin-3-yl)-1,3-dioxoisoindolin-4-ylamino)ethoxy)ethoxy)ethoxy)methyl)-1H-1,2,3-triazol-1-yl)butanoyl)piperazin-1-yl)prop-1-ynyl)-2-fluorophenoxy)propyl)thiazole-4-carboxylic acid] | – | – | – | – | – | selectively inhibit IR-SC WI38 cells but not normal WI 38 cells in a dose dependent manner |
| CC(C)(C)OC(=O)N1CCN(CC#Cc2ccc(OCCCc3sc(N4CCc5cccc(C(=O)Nc6nc7ccccc7s6)c5C4)nc3C(=O)O)c(F)c2)CC1 [XZ-13861, 2-(8-(benzo[d]thiazol-2-ylcarbamoyl)-3,4-dihydroisoquinolin-2(1H)-yl)-5-(3-(4-(3-(4-(tert-butoxycarbonyl)piperazin-1-yl)prop-1-ynyl)-2-fluorophenoxy)propyl)thiazole-4-carboxylic acid] | – | – | 3120 nM | 32800 nM | 10.51 | selectively inhibit IR-SC WI38 cells but not normal WI 38 cells in a dose dependent manner |
| O=C1CCC(N2C(=O)c3cccc(NCCOCCOCc4cn(CCCC(=O)N5CCN(CC#Cc6ccc(OCCCc7sc(N8CCc9cccc(C(=O)Nc%10nc%11ccccc%11s%10)c9C8)nc7C(=O)O)c(F)c6)CC5)nn4)c3C2=O)C(=O)N1 (stereo not shown) [XZ-14424, 2-(8-(benzo[d]thiazol-2-ylcarbamoyl)-3,4-dihydroisoquinolin-2(1H)-yl)-5-(3-(4-(3-(4-(4-(4-((2-(2-((2-(2,6-dioxopiperidin-3-yl)-1,3-dioxoisoindolin-4-yl)amino)ethoxy)ethoxy)methyl)-1H-1,2,3-triazol-1-yl)butanoyl)piperazin-1-yl)prop-1-yn-1-yl)-2-fluorophenoxy)propyl)thiazole-4-carboxylic acid] | – | – | 1400 nM | 1600 nM | 1.2 | – |
| CC1(C)CCC(c2ccc(Cl)cc2)=C(CN2CCN(c3ccc(C(=O)NS(=O)(=O)c4ccc(N[C@H](CCN5CCN(C(=O)COCCOCCOCCNc6cccc7c6C(=O)N(C6CCC(=O)NC6=O)C7=O)CC5)CSc5ccccc5)c(S(=O)(=O)C(F)(F)F)c4)cc3)CC2)C1 (stereo partly shown) [XZ-14510] | 112 nM | 220 nM | 177 nM | > 10000 nM | >56 | – |
| CC1(C)CCC(c2ccc(Cl)cc2)=C(CN2CCN(c3ccc(C(=O)NS(=O)(=O)c4ccc(N[C@H](CCN5CCN(C(=O)COCCOCCNc6cccc7c6C(=O)N(C6CCC(=O)NC6=O)C7=O)CC5)CSc5ccccc5)c(S(=O)(=O)C(F)(F)F)c4)cc3)CC2)C1 (stereo partly shown) [XZ-14515] | 79.2 nM | 173 nM | 158 nM | > 10000 nM | >63.27 | – |

Second part, led by results:

| EC50 (NCI-H146 cancer cells) | EC50 (RS4; 11 cancer cells) | Structure (SMILES) | EC50 [1] | EC50 (Normal WI38 (NSC)) | Ratio NSC/SC [1] | Selective inhibition of IR-SC WI38 cells versus normal WI38 cells [1] |
| --- | --- | --- | --- | --- | --- | --- |
| 27.5 nM | 16 nM | CC1(C)CCC(c2ccc(Cl)cc2)=C(CN2CCN(c3ccc(C(=O)NS(=O)(=O)c4ccc(N[C@H](CCN5CCOCC5)CSc5ccccc5)c(S(=O)(=O)C(F)(F)F)c4)cc3)CC2)C1 [ABT-263, navitoclax, reference compound] | 610 nM | 12600 nM | 20.6 | – |
| > 2000 nM | > 2000 nM | Cc1ncsc1-c1ccc(CNC(=O)[C@@H]2C[C@@H](O)CN2C(=O)[C@@H](NC(=O)COCCOCCOCc2cn(CCCC(=O)N3CCN(CC#Cc4ccc(OCCCc5sc(N6CCc7cccc(C(=O)Nc8nc9ccccc9s8)c7C6)nc5C(=O)O)c(F)c4)CC3)nn2)C(C)(C)C)cc1 [XZ-14455, 2-(8-(benzo[d]thiazol-2-ylcarbamoyl)-3,4-dihydroisoquinolin-2(1H)-yl)-5-(3-(2-fluoro-4-(3-(4-(4-(4-((S)-12-((2S,4R)-4-hydroxy-2-((4-(4-methylthiazol-5-yl)benzyl)carbamoyl)pyrrolidine-1-carbonyl)-13,13-dimethyl-10-oxo-2,5,8-trioxa-11-azatetradecyl)-1H-1,2,3-triazol-1-yl)butanoyl)piperazin-1-yl)-prop-1-yn-1-yl)phenoxy)propyl)thiazole-4-carboxylic acid] | 1470 nM | 5000 nM | 3.40 | – |
| 65 nM | 90 nM | CC1(C)CCC(c2ccc(Cl)cc2)=C(CN2CCN(c3ccc(C(=O)NS(=O)(=O)c4ccc(N[C@H](CCN5CCN(C(=O)NCCOCCOCCNc6cccc7c6C(=O)N(C6CCC(=O)NC6=O)C7=O)CC5)CSc5ccccc5)c(S(=O)(=O)C(F)(F)F)c4)cc3)CC2)C1 (stereo partly drawn) [XZ-14509, 4-((R)-3-(4-(N-(4-(4-((2-(4-chlorophenyl)-5,5-dimethylcyclohex-1-enyl)methyl)piperazin-1-yl)benzoyl)sulfamoyl)-2-(trifluoromethylsulfonyl)phenylamino)-4-(phenylthio)butyl)-N-(2-(2-(2-(2-(2,6-dioxopiperidin-3-yl)-1,3-dioxoisoindolin-4-ylamino)ethoxy)ethoxy)ethyl)piperazine-1-carboxamide] | 226 nM | > 10000 nM | >44.22 | – |
| 517 nM | 1090 nM | CC1(C)CCC(c2ccc(Cl)cc2)=C(CN2CCN(c3ccc(C(=O)NS(=O)(=O)c4ccc(N[C@H](CCN5CCN(C(=S)NCCOCCOCCNc6cccc7c6C(=O)N(C6CCC(=O)NC6=O)C7=O)CC5)CSc5ccccc5)c(S(=O)(=O)C(F)(F)F)c4)cc3)CC2)C1 (stereo partly drawn) [XZ-14516, 4-(4-((2-(4-chlorophenyl)-5,5-dimethylcyclohex-1-enyl)methyl)piperazin-1-yl)-N-(4-((2R)-4-(4-(2-(2-(2-(2-(2,6-dioxopiperidin-3-yl)-1,3-dioxoisoindolin-4-ylamino)ethoxy)ethoxy)ethylcarbamothioyl)piperazin-1-yl)-1-(phenylthio)butan-2-ylamino)-3-(trifluoromethylsulfonyl)phenylsulfonyl)benzamide] | 92 nM | > 10000 nM | >109 | – |
| 1100 nM | 47 nM | CC1(C)CCC(CN2CCN(c3ccc(C(=O)NS(=O)(=O)c4ccc(NCC5CCN(C(=O)COCCOCCOCCNc6cccc7c6C(=O)N(C6CCC(=O)NC6=O)C7=O)CC5)c([N+](=O)[O-])c4)c(Oc4cnc5[nH]ccc5c4)c3)CC2)=C(c2ccc(Cl)cc2)C1 (stereo not shown) [XZ-14522] | > 10000 nM | > 10000 nM | – | – |
| 1260 nM | 161 nM | CC1(C)CCC(CN2CCN(c3ccc(C(=O)NS(=O)(=O)c4ccc(NCC5CCN(C(=O)CCCn6cc(COCCOCCOCCNc7cccc8c7C(=O)N(C7CCC(=O)NC7=O)C8=O)nn6)CC5)c([N+](=O)[O-])c4)c(Oc4cnc5[nH]ccc5c4)c3)CC2)=C(c2ccc(Cl)cc2)C1 (stereo not shown) [XZ-14523, 2-((1H-pyrrolo[2,3-b]pyridin-5-yl)oxy)-4-(4-((4′-chloro-5,5-dimethyl-3,4,5,6-tetrahydro-[1,1′-biphenyl]-2-yl)methyl)piperazin-1-yl)-N-((4-(((1-(4-(4-((2-(2-(2-((2-(2,6-dioxopiperidin-3-yl)-1,3-dioxoisoindolin-4-yl)amino)ethoxy)ethoxy)ethoxy)methyl)-1H-1,2,3-triazol-1-yl)butanoyl)piperidin-4-yl)methyl)amino)-3-nitrophenyl)sulfonyl)benzamide] | > 10000 nM | > 10000 nM | – | – |
| > 2000 nM | 397 nM | Cc1ncsc1-c1ccc(CNC(=O)[C@@H]2C[C@@H](O)CN2C(=O)[C@@H](NC(=O)CCC(=O)NCCOCCOCCNC(=O)N2CCC(CNc3ccc(S(=O)(=O)NC(=O)c4ccc(N5CCN(CC6=C(c7ccc(Cl)cc7)CC(C)(C)CC6)CC5)cc4Oc4cnc5[nH]ccc5c4)cc3[N+](=O)[O-])CC2)C(C)(C)C)cc1 [XZ-14528, N1-(2-(2-(2-(4-(((4-N-(2-((1H-pyrrolo[2,3-b]pyridin-5-yl)oxy)-4-(4-((4′-chloro-5,5-dimethyl-3,4,5,6-tetrahydro-(1,1′-biphenyl-2-yl)methyl)piperazin-1-yl)benzoyl)sulfamoyl)-2-nitrophenyl)amino)methyl)piperidine-1-carboxamido)ethoxy)ethoxy)ethyl)-N4-((S)-1-((2S,4R)-4-hydroxy-2-((4-(4-methylthiazol-5-yl)benzyl)carbamoyl)pyrrolidin-1-yl)-3,3-dimethyl-1-oxobutan-2-yl)succinamide] | > 10000 nM | > 10000 nM | – | – |
